Test results: BindingDB's records for doi:10.1074/jbc.M114.556381 (Central South University, 2014)
pIC50: −log10 of the molar value.

Molecular target: Prokineticin receptor 2 (Homo sapiens, UniProt Q8NFJ6)
Assay: Calcium Mobilization Assay
Conditions: pH 7.5; 37 °C
Method: Briefly, Chinese hamster ovary cells stably expressing the photoprotein aequorin were transiently transfected with WT or respective mutant PKR2-expressing plasmids. Two days after transfection, the cells were charged in Opti-MEM (Invitrogen) containing 8 μM coelenterazine cp (Invitrogen) at 37 °C for 2 h. Cells were detached by brief trypsinization and maintained in assay buffer (Hanks' balanced salt solution plus 10 mM HEPES, pH 7.5, and 0.1% bovine serum albumin) at approximately 5 × 10^5 cells/ml. Luminescence measurements were made using a Sirius Single Tube Luminometer (Berthold Detection Systems GmbH, Pforzheim, Germany). PK2 was serially diluted in assay buffer and mixed with cells. The luminescence was monitored for 35 s (peak 1), then 100 μl of 1% Triton X-100 was injected to lyse the cells, and the luminescence was monitored continuously for another 20 s (peak 2). The area under the curve of the peak 1 was divided by the total area under the curve of peaks 1 and 2, and the maximal responses from WT receptors were normalized to 100.

Sequence of Prokineticin receptor 2 (Q8NFJ6 whole entry): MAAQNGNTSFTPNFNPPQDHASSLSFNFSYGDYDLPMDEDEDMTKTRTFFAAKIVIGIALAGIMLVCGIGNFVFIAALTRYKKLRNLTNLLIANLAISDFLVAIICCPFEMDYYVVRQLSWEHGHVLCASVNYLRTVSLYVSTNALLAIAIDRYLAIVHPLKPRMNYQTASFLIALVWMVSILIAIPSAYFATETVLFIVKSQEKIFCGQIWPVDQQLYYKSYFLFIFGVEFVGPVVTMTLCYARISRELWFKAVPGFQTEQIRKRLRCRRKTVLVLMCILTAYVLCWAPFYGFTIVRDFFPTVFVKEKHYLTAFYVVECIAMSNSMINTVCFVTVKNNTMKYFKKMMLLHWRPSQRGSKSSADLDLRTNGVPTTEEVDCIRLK

pIC50: 6.99
SMILES: CC(C)CN(Cc1cc(Cl)c2c(c1)OCCCO2)C(=O)C1CCN(Cc2ccccc2)C1 (racemic) [US8722896, (+/-)-1-Benzyl-N-(9-chloro-3,4-dihydro-2H-1,5-benzodioxepin-7-ylmethyl)-N-isobutylpyrrolidine-3-carboxamide]
